# Laboratory results reported in PMC10856407, “Polymer Nanoparticles with 2-HP-β-Cyclodextrin for Enhanced Retention of Uptake into HCE-T Cells” (Molecules, 2024).
# Key:
# HCE-T cells [1] = experiment: Endocytic transport mechanism in nanoparticle uptake (endocytosis inhibitors, flow cytometry); type: cell-based, human; details: EIPA 100 μM, Chlorpromazine 30 μM, Nystain 30 μM, p < 0.01
# Procedure: The main nanoparticle entry processes involve the clathrin structure, caveolin/lipid raft structure, and macropinocytosis. The experiment was conducted by separately adding different endocytosis transport inhibitors to examine the degree of action during nanoparticle uptake. The clathrin structural inhibitor Chlorpromazine (30 μM), the caveolin/lipid raft structure inhibitor Nystain (30 μM), and the macropinocytosis inhibitor derivative amiloride (EIPA, 100 μM) were added seperately. […] Serum-free cultures of varying endocytotic transport inhibitors were inspected using the method described above (Study of Active Transport Mechanism in Nanoparticle Uptake by HCE-T Cells).
# HCE-T cells [2] = details: sodium azide 1 mg·mL^−1, 1 h pre-incubation, 4 h uptake, NPs 20 μg·mL^−1, p < 0.01
# Procedure: HCE-T cells were seeded at a density of 1 × 10^5 cells·well^−1 in a six-well plate, and the culture medium was discarded when the cell density reached 80%. […] Then, fluorescently labeled nanoparticles were added for a final concentration of 20 μg·mL^−1. After continuing the uptake experiment for 4 h, the fluorescently labeled nanoparticle solution was discarded, washed three times with PBS, and digested using trypsin. The cells were blown out with serum cultures, collected, and centrifuged at 1000 rpm. The supernatant was aspirated to remove the fluorescent material adsorbed on the cell surface. Finally, 0.3 mL of the cells suspended in PBS were transferred into flow tubes and assayed using flow cytometry (BD FACSCanto II, Becton, Dickinson and Company, New York, NY, USA). The fluorescence intensity was quantified by collecting 10,000 cells, and X-means were used for comparing the differences in cell uptake between the groups.
Compound,inhibition of HCE-T cell uptake of (2-HP-β-CD)/PLGA NPs (HCE-T cells [1]),other results
"CCN(c1nc(N)c(C(=O)N=C(N)N)nc1Cl)C(C)C [EIPA, 5-(N-ethyl-N-isopropyl) amiloride]",53.3%,
Nystain,38.3%,
[N-]=[N+]=[N-].[Na+] [sodium azide],,reduction of uptake of (2-HP-β-CD)/PLGA NPs (HCE-T cells [2]): 60.0%
CN(C)CCCN1c2ccccc2Sc2ccc(Cl)cc21 [Chlorpromazine],,"inhibition at 30 µM (HCE-T cells [1]; Homo sapiens, read-out: inhibition of HCE-T cell uptake of (2-HP-β-CD)/PLGA NPs): 46.4%"
